The results in this text go back to patent EP1137632B1, “THIOUREA INHIBITORS OF HERPES VIRUSES” (Wyeth, priority 1998, dated 2000).

Values after ≈ are worked out from the molar mass of the structure shown. Read-outs that look alike come from different tables or passages of the source.

The test system of test [1] is HSV-1. As to the kind of experiment: HSV antiviral (ELISA) assay in Vero cells. The class given is cell-based, herpes simplex virus type 1. The settings on record: for IC50: read-out: IC50 (ug/ml) HSV. An outline of the steps: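 Vero cells in DMEM/2% FBS treated with compound 30 min before HSV-1 infection (MOI 0.006), ~24 h at 37 °C. Viral glycoprotein D measured by cell ELISA with β-galactosidase-linked secondary and fluorogenic methylumbelliferyl galactoside (ex 365/em 450 nm); IC50 versus no-compound fluorescence.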
On the technique in general: ELISA stands for enzyme-linked immunosorbent assay.

Test [2] deals with VZV strain Ellen. Description: VZV antiviral (ELISA) assay in human foreskin fibroblast cells. The class given is cell-based, varicella-zoster virus. The settings on record: for inhibition at 10 µg/mL: Human alphaherpesvirus 3, Fibroblast, read-out: % inhibition 10 ug/ml VZV; for IC50: read-out: IC50 (ug/ml) VZV. An outline of the steps:
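HFF cells infected with VZV Ellen (MOI <0.1) overnight, then plated at 3.5x10^4 cells/well with compound in DMEM + 2% FBS for three days at 37°C, 5% CO2. Viral glycoprotein II quantified by ELISA with β-galactosidase-linked secondary and 4-methylumbelliferyl-galactoside fluorescence (365/450 nm); IC50 versus no-compound fluorescence.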

Test [3] has as its system HCMV recombinant mutant virus. As to the kind of experiment: microbe, parasite or virus in culture. The class given is cell-based, human cytomegalovirus. The settings on record: for IC50: Human betaherpesvirus 5, read-out: IC50 (ug/ml) HCMV. An outline of the steps: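 Human foreskin fibroblasts were infected with a recombinant HCMV carrying a beta-glucuronidase gene under a viral promoter, in the presence of compound. At 96 h post-infection, lysate beta-glucuronidase activity was read colorimetrically or fluorometrically as a replication marker. IC50 came from the compound dose range.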

Setting [4] is: Human alphaherpesvirus 1, HSV-1 in Vero cells.
[5] abbreviates: Human alphaherpesvirus 3, VZV strain Ellen in HFF cells.

In the case of `COc1cc(C)c(Cl)cc1NC(=S)Nc1ccc(NC(=O)c2ccccc2F)c(C)c1` [Example 394, N-{4-[3-(5-Chloro-2-methoxy-4-methyl-phenyl)-thioureido]-2-methyl-phenyl}-2-fluoro-benzamide], the values for the IC50 in test [1] (setting [4]), in test [2] (setting [5]) and in test [3] were 0.2 µg/mL (≈ 0.437 µM), more than 10 µg/mL and more than 10 µg/mL, respectively. In addition, in test [2], the inhibition at 10 µg/mL worked out at 36%.
With `CC(NC(=S)Nc1ccc(NC(=O)c2nccc3ccccc23)c(C(F)(F)F)c1)c1ccc(F)cc1` (stereo not drawn) [Example 1066, Isoquinoline-1-carboxylic acid (4-{3-[1-(4-fluoro-phenyl)-ethyl]-thioureido}-2-trifluoromethyl-phenyl)-amide], the values for the IC50 in test [1] (setting [4]), in test [2] (setting [5]) and in test [3] were 1.9 µg/mL (≈ 3.71 µM), 0.02 µg/mL (≈ 0.039 µM) and 1.8 µg/mL (≈ 3.51 µM), respectively.
On the same counts, the results for `CC(NC(=S)Nc1cc(Br)c(NC(=O)c2ccccc2F)c(Br)c1)c1ccc(F)cc1` (stereo not drawn) [Example 1033, N-(2,6-Dibromo-4-{3-[1-(4-fluoro-phenyl)-ethyl]-thioureido}-phenyl)-2-fluoro-benzamide] are 7 µg/mL (≈ 12.3 µM), 0.039 µg/mL (≈ 0.0685 µM) and 3.8 µg/mL (≈ 6.68 µM).
`COc1cc(OC)c(NC(=S)Nc2ccc(NC(=O)c3ccccc3F)c(OC)c2)cc1Cl` [Example 303, N-{4-[3-(5-Chloro-2,4-dimethoxy-phenyl)-thioureido]-2-methoxy-phenyl}-2-fluoro-benzamide]: the IC50 in test [1] (setting [4]), in test [2] (setting [5]) and in test [3] was more than 10 µg/mL in each case. Further, the inhibition at 10 µg/mL in test [2] came out at 15%.
For the compound `COc1cc(OC)c(NC(=S)Nc2ccc(NC(=O)c3ccccc3F)c(C#N)c2)cc1Cl` [Example 277, N-{4-[3-(5-Chloro-2,4-dimethoxy-phenyl)-thioureido]-2-cyano-phenyl}-2-fluoro-benzamide], the IC50 in test [1] (setting [4]), in test [2] (setting [5]) and in test [3] was more than 10 µg/mL throughout. Further, in test [2], the inhibition at 10 µg/mL is 0%.
As for `CC(NC(=S)Nc1ccc(NC(=O)c2ccccc2F)c(C(F)(F)F)c1)c1ccc(Br)cc1` (stereo not drawn) [Example 1035, N-(4-{3-[1-(4-Bromo-phenyl)-ethyl)-thioureido}-2-trifluoromethyl-phenyl)-2-fluoro-benzamide], the IC50 is 3.1 µg/mL (≈ 5.74 µM) in test [1] (setting [4]), 0.032 µg/mL (≈ 0.0592 µM) in test [2] (setting [5]) and 2.3 µg/mL (≈ 4.26 µM) in test [3].
Regarding `COc1cc(NC(=O)c2ccccc2F)ccc1NC(=S)Nc1cc(Cl)c(C)cc1OC` [Example 418, N-{4-[3-(5-Chloro-2-methoxy-4-methyl-phenyl)-thioureido]-3-methoxy-phenyl}-2-fluoro-benzamide], the IC50 was 0.05 µg/mL (≈ 0.105 µM) in test [1] (setting [4]), more than 10 µg/mL in test [2] (setting [5]) and 3 µg/mL (≈ 6.33 µM) in test [3]. Moreover, the inhibition at 10 µg/mL in test [2] was 10%.
`COc1cc(OC)c(NC(=S)Nc2ccc(NC(=O)c3ccccc3F)c(C)c2)cc1Cl` [Example 310, N-{4-[3-(5-Chloro-2,4-dimethoxy-phenyl)-thioureido]-2-methyl-phenyl}-2-fluoro-benzamide]: the figures for the IC50 in test [1] (setting [4]), in test [2] (setting [5]) and in test [3] were 2 µg/mL (≈ 4.22 µM), more than 10 µg/mL and more than 10 µg/mL, respectively. The inhibition at 10 µg/mL in test [2] was determined as 40%.
As for `COc1cc(OC)c(NC(=S)Nc2ccc(NC(=O)c3ccccc3F)cc2C)cc1Cl` [Example 295, N-{4-[3-(5-Chloro-2,4-dimethoxy-phenyl)-thioureido]-3-methyl-phenyl}-2-fluoro-benzamide], the IC50 in test [1] (setting [4]) was 0.15 µg/mL (≈ 0.316 µM); in test [2] (setting [5]), more than 10 µg/mL; in test [3] it was more than 10 µg/mL. Besides, the inhibition at 10 µg/mL in test [2] stood at 20%.
For `CC(NC(=S)Nc1ccc(NC(=O)c2ccccc2F)c(OCC#N)c1)c1ccc(F)cc1` (stereo not drawn) [Example 1062, 2-Fluoro-N-[4-{3-[1-(4-fluoro-phenyl)-ethyl]-thioureido}-2-(2-nitrilo-ethoxy)-phenyl]-benzamide], the IC50 in test [1] (setting [4]) was more than 10 µg/mL; in test [2] (setting [5]), 0.33 µg/mL (≈ 0.707 µM); in test [3], 6 µg/mL (≈ 12.9 µM).
For the compound `COc1cc(OC)c(NC(=S)Nc2cc(C)c(NC(=O)c3ccccc3F)cc2Cl)cc1Cl` [Example 327, N-{5-Chloro-4-[3-(5-chloro-2,4-dimethoxy-phenyl)-thioureido]-2-methyl-phenyl}-2-fluoro-benzamide], the IC50 in test [1] (setting [4]), in test [2] (setting [5]) and in test [3] was more than 10 µg/mL in each case. Also, in test [2], the inhibition at 10 µg/mL turned out to be 42%.
Consider `COc1cc(OC)c(NC(=S)Nc2ccc(NC(=O)c3ccccc3F)c(C(=O)Nc3ccccc3)c2)cc1Cl` [Example 301, 5-[[[(5-Chloro-2,4-dimethoxyphenyl)amino]thioxomethyl]amino]-2-[(2-fluorobenzoyl)amino]-N-phenyl-benzamide], for which the IC50 is 10 µg/mL (≈ 17.3 µM) in test [1] (setting [4]), more than 10 µg/mL in test [2] (setting [5]) and more than 10 µg/mL in test [3]. Further, the inhibition at 10 µg/mL in test [2] was determined as 10%.
For the compound `COc1cc(NC(=S)NC(C)c2ccc(F)cc2)c(C)cc1NC(=O)c1ccccc1F` (stereo not drawn) [Example 1031, 2-Fluoro-N-(4-{3-[1-(4-fluoro-phenyl)-ethyl]-thioureido}-2-methoxy-5-methyl-phenyl)-benzamide], the IC50 in test [1] (setting [4]) is more than 10 µg/mL; in test [2] (setting [5]), 0.7 µg/mL (≈ 1.54 µM); in test [3] it was more than 10 µg/mL.
With `Cc1cc(NC(=S)NC(C)c2ccc(F)cc2)ccc1NC(=O)c1cc2ccccc2cn1` (stereo not drawn) [Example 1074, Isoquinoline-3-carboxylic acid (4-{3-[1-(4-fluoro-phenyl)-ethyl]-thioureido}-2-methyl-phenyl)-amide], the IC50 in test [1] (setting [4]) came out at 5.8 µg/mL (≈ 12.6 µM); in test [2] (setting [5]), 0.07 µg/mL (≈ 0.153 µM); in test [3] it was 4 µg/mL (≈ 8.72 µM).
As for `CCCCOc1cc(NC(=S)NC(C)c2ccc(C#N)cc2)ccc1NC(=O)c1ccccc1F` (stereo not drawn) [Example 1056, N-(2-Butoxy-4-{3-[1-(4-cyano-phenyl)-ethyl]-thioureido}-phenyl)-2-fluoro-benzamide], the IC50 is more than 10 µg/mL in test [1] (setting [4]), 0.4 µg/mL (≈ 0.815 µM) in test [2] (setting [5]) and 2.5 µg/mL (≈ 5.1 µM) in test [3].
For `CC(=O)Nc1ccc(NC(=S)Nc2ccc(NC(=O)c3ccc4ccccc4c3O)c(Cl)c2)cc1` [Example 204, 1-Hydroxy-naphthalene-2-carboxylic acid {4-[3-(4-acetylamino-phenyl)-thioureido]-2-chloro-phenyl}-amide], the IC50 in test [1] (setting [4]) was 4 µg/mL (≈ 7.92 µM); in test [2] (setting [5]), more than 10 µg/mL; in test [3] it was 8 µg/mL (≈ 15.8 µM). Moreover, the inhibition at 10 µg/mL in test [2] amounted to 41%.
`CCCCOc1cc(NC(=S)NC(C)c2ccc(F)cc2)ccc1NC(=O)c1ccccc1F` (stereo not drawn) [Example 1055, N-(2-Butoxy-4-{3-[1-(4-fluoro-phenyl)-ethyl]-thioureido}-phenyl)-2-fluoro-benzamide]: the results for the IC50 in test [1] (setting [4]), in test [2] (setting [5]) and in test [3] were more than 10 µg/mL, 0.32 µg/mL (≈ 0.662 µM) and more than 10 µg/mL, respectively.
Take `CC(NC(=S)Nc1ccc(NC(=O)c2cc3ccccc3cn2)c(C(F)(F)F)c1)c1ccc(F)cc1` (stereo not drawn) [Example 1068, Isoquinoline-3-carboxylic acid (4-{3-[1-(4-fluoro-phenyl)-ethyl]-thioureido}-2-trifluoromethyl-phenyl)-amide]: the IC50 is more than 10 µg/mL in test [1] (setting [4]), 0.04 µg/mL (≈ 0.078 µM) in test [2] (setting [5]) and more than 10 µg/mL in test [3].
For the compound `CC(NC(=S)Nc1ccc(NC(=O)c2ccccc2F)c(OCC#N)c1)c1ccc(C#N)cc1` (stereo not drawn) [Example 1063, N-[4-{3-[1-(4-Cyano-phenyl)-ethyl]-thioureido}-2-(2-nitrilo-ethoxy)-phenyl]-2-fluoro-benzamide], the IC50 in test [1] (setting [4]) was more than 10 µg/mL; in test [2] (setting [5]), 0.64 µg/mL (≈ 1.35 µM); in test [3] it was 3.6 µg/mL (≈ 7.6 µM).
Turning to `Cc1cc(NC(=S)NC(C)c2ccc(C#N)cc2)ccc1NC(=O)c1ccccc1F` (stereo not drawn) [Example 1047, N-(4-{3-[1-(4-Cyano-phenyl)-ethyl]-thioureido}-2-methyl-phenyl)-2-fluoro-benzamide], the IC50 in test [1] (Human alphaherpesvirus 1, Vero) is more than 10 µg/mL; in test [2] (Human alphaherpesvirus 3, HFF), 0.63 µg/mL (≈ 1.46 µM); in test [3] it was 6.1 µg/mL (≈ 14.1 µM).
Regarding `COc1cc(NC(=O)c2ccccc2F)ccc1NC(=S)Nc1ccc(SC)c(Cl)c1` [Example 420, N-{4-[3-(3-Chloro-4-methylsulfanyl-phenyl)-thioureido]-3-methoxy-phenyl}-2-fluoro-benzamide], the IC50 in test [1] (setting [4]) is 0.2 µg/mL (≈ 0.42 µM); in test [2] (setting [5]), more than 10 µg/mL; in test [3] it was 7 µg/mL (≈ 14.7 µM). Further, the inhibition at 10 µg/mL in test [2] was found to be 34%.
As for `COc1cc(OC)c(NC(=S)Nc2cc(OC)c(NC(=O)c3ccccc3F)cc2C)cc1Cl` [Example 286, N-{4-[3-(5-Chloro-2,4-dimethoxy-phenyl)-thioureido]-2-methoxy-5-methyl-phenyl}-2-fluoro-benzamide], the figures for the IC50 in test [1] (setting [4]), in test [2] (setting [5]) and in test [3] were 2 µg/mL (≈ 3.97 µM), more than 10 µg/mL and 40 µg/mL (≈ 79.4 µM), respectively. Besides, the inhibition at 10 µg/mL in test [2] stood at 5%.
“(5H,11H-Benzo[e]pyrrolo[1,2-a][1,4]diazepin-10-yl)-(2-chloro-4-imidazol-1-yl-phenyl)-methanone [Example 322]”: in test [1] (HSV-1 in Vero cells), the “IC50 (ug/ml) HSV” value is 4 µg/mL. Also, the “% inhibition 10 ug/ml VZV” value in test [2] (10 ug/ml) came to 108%. In test [2] (VZV strain Ellen in HFF cells), the “IC50 (ug/ml) VZV” value came to 8 µg/mL. In addition, in test [3] (HCMV, the table does not say which HCMV assay), the “IC50 (ug/ml) HCMV” value stood at 7 µg/mL.
